Paper PMC11231141, “Ube3a unsilencer for the potential treatment of Angelman syndrome” (Nature Communications, 2024)
Like-named read-outs stand apart in the source and are kept apart here.

Legend:
Ube3a mRNA = experiment: quantitative RT-PCR of Ube3a mRNA in wild-type primary neurons; type: cell-based, mouse
Experimental: (§1) from the paternal allele in mouse wild-type primary neurons. Primar y cortical neurons derived from wild-type (WT) mice were treated either with 0.1% DMSO as a vehicle, 1 µM ( S)-P HA53 35 33 , or 0.3 µ M to po te can for 72 hours at DIV7. Following the treatment, the relative quantity of ( a) Ube3a […]
determined through western blotting, with the data averaged across three individual experiments, depicted in (c). All data were normalized to GAPDH/Gapdh expression, log- transformed, mean-centered, and autoscaled for statistical analysis (n = 4 experiments fo r R T-PCR, and n = 3 for western blot; me a n ± SE M , o n e -way ANOVA followed by Dunnett ’s post hoc test, ** p < 0.01, *** p < 0.001, **** p < 0.0001). µM – micromolar; DMSO – dimethyl sulfoxide; kDA – kilodalton; Norm. – […]
(1 picture or pasted object on this page, not shown here)

UBE3A protein = experiment: western blot of UBE3A protein in wild-type primary neurons; type: cell-based, mouse
Experimental: 2’ MOE gapmer antisense oligonucleotides (ASOs) designed to target mouse Cdk2 sequence […], Cdk5 sequence […], Top1 sequence […], and scrambled […] sequence as a negative control (Integrated DNA Technologies) were formulated in water and added to cultured cortical neurons grown on 6-well plates at DIV5 at a final concentration of 10 μM. Neurons were further cultured and treated at DIV7 with vehicle (0.1% DMSO) or the indicated compounds for 72 h. For western blot analysis, neurons were washed once with PBS and then lysed using RIPA buffer (50 mM Tris-HCl pH 8.0, 150 mM NaCl, 1% NP−40, 0.5% Na-deoxycholate, 0.5% SDS) and protease inhibitor cocktail (P8340, MilliporeSigma) on ice. […]
as §1
determined through western blotting, with the data averaged across three individual experiments, depicted in (c). […]

paternal UBE3A-YFP = paternal UBE3A-YFP western blot after ASO-mediated knockdown of candidate targets; type: cell-based, mouse; details: for unsilencing of paternal Ube3a after ASO-mediated knockdown of TOP1: 10 µM ASO at DIV5, 1 µM (S)-PHA533533 or 0.3 µM topotecan 72 h from DIV7
Experimental: . […] Scrambled ASO together with DMSO treatment were used as controls for any non-specific effects.
The addition of TOP1 catalyzes supercoiled DNA substrate (lane 1) into slower migrating relaxed DNA (lane 2). […] . Following the treatment, the relative quantities of (h) Snord115, (i) Dlg2, (j) Nrxn3, (k) Malat1, (l) Pantr1, and (m) Airn transcripts were determined by quantitative RT-PCR (n = 4 experiments; mean ± SEM).
2’ MOE gapmer antisense oligonucleotides (ASOs) designed to target mouse Cdk2 sequence […], Cdk5 sequence […], Top1 sequence […], and scrambled […] sequence as a negative control (Integrated DNA Technologies) were formulated in water and added to cultured cortical neurons grown on 6-well plates at DIV5 at a final concentration of 10 μM. Neurons were further cultured and treated at DIV7 with vehicle (0.1% DMSO) or the indicated compounds for 72 h. For western blot analysis, neurons were washed once with PBS and then lysed using RIPA buffer (50 mM Tris-HCl pH 8.0, 150 mM NaCl, 1% NP−40, 0.5% Na-deoxycholate, 0.5% SDS) and protease inhibitor cocktail (P8340, MilliporeSigma) on ice.

TOP1 = target: T1, TOP1 (Homo sapiens, UniProt P11387); experiment: TOP1-mediated DNA relaxation assay; type: biochemical; details: 3 μM topotecan; increasing concentrations of (S)- and (R)-PHA533533; vs DMSO
T1 construct: purchased TopoGEN
T1 sequence (P11387 1-765): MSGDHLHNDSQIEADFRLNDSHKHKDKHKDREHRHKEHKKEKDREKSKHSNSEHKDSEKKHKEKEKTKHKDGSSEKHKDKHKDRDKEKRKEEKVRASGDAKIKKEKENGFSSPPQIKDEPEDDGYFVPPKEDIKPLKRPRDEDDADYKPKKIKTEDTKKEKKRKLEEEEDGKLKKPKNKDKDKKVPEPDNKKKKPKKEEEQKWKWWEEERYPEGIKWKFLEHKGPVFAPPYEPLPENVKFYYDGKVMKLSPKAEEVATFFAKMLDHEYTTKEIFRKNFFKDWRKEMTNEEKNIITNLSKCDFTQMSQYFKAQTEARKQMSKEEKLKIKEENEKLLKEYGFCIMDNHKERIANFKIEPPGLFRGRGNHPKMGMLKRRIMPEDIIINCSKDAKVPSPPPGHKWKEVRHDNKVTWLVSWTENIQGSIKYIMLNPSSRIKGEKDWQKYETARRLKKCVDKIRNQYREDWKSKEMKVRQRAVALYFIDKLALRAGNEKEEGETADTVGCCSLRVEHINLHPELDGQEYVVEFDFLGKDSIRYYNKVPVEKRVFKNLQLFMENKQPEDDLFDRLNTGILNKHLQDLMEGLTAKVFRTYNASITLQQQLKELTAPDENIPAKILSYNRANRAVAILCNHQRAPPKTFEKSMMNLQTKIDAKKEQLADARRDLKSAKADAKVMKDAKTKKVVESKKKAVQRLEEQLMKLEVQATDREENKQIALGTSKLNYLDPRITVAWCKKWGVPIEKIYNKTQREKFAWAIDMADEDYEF
Text: (§2) […]. […] […]. […] […]. […] […].
The Pfizer chemogenetic library and PHA533533 derivatives were provided by the Compound Transfer Program (CTP) at Pfizer. Topotecan hydrochloride salt was purchased from Cayman Chemicals (Item No. 14129). […] […]. The Human Topoisomerase I Assay Kit was purchased from TopoGEN and performed according to the manufacturer’s protocols.

[1] = tested on: Snord115, Dlg2, Nrxn3, Malat1; experiment: quantitative RT-PCR of long genes in cultured mouse neurons; type: cell-based; details: 1 µM (S)-PHA533533 or 0.3 µM topotecan, 72 h, vs DMSO
Text: as §2

Pantr1, Airn = experiment: quantitative RT-PCR of antisense lncRNA transcripts in cultured mouse neurons; type: cell-based; details: 1 µM (S)-PHA533533 or 0.3 µM topotecan, 72 h, vs DMSO
Text: as §2

[2] = 1 µM (S)-PHA533533 or 0.3 µM topotecan, 72 h at DIV7

Structure (SMILES)	Ube3a mRNA levels in WT neurons (Ube3a mRNA)	UBE3A protein levels in WT neurons (UBE3A protein)	unsilencing of paternal UBE3A-YFP after ASO-mediated knockdown of CDK5 (paternal UBE3A-YFP; 10 µM ASO at DIV5, 1 µM (S)-PHA533533 72 h from DIV7)	unsilencing of paternal Ube3a after ASO-mediated knockdown of TOP1 (paternal UBE3A-YFP)	inhibition of TOP1 catalytic activity to relax supercoiled DNA (TOP1)	expression of long genes (Snord115, Dlg2, Nrxn3, Malat1) [1]	expression levels of Pantr1 or Airn (Pantr1, Airn)	Ube3a mRNA levels in WT neurons (Ube3a mRNA; [2])	UBE3A protein levels in WT neurons (UBE3A protein; [2])
C[C@H](C(=O)Nc1cc(C2CC2)[nH]n1)c1ccc(N2CCCC2=O)cc1 [(S)-PHA533533]	significantly increased	significantly increased	nor did it occlude the unsilencing	did not affect	had no effect on the TOP1 activity	significantly reduced the expression of only Snord115	neither topotecan nor (S)-PHA533533 treatments changed the expression levels		
CC[C@@]1(O)C(=O)OCc2c1cc1n(c2=O)Cc2cc3c(CN(C)C)c(O)ccc3nc2-1 [Topotecan, reference compound]				almost completely occluded	clearly inhibited TOP1 catalytic activity	significantly impaired the expression of all the measured long genes	neither topotecan nor (S)-PHA533533 treatments changed the expression levels	significantly increased	significantly increased
